Data reported in patent US20040009899A1, “Treating dominant disorders” (priority 2002, published 2004).

Test system: R6/2 mice
Test: Survival of R6/2 transgenic mice treated with PNA
Type: in vivo, mouse
Protocol: Cannulation and microsurgery—Method 2: Pump cannulas were prepared 48 hours before surgery. For adaptation to mice, Alzet pump cannulas were ground to a length of 2 mm. The cannulas then were sterilized by gas ozonation. Mice were anesthetized via i.p. injection with 100 mg/kg of a ketamine/xylazine solution containing 8 mg/mL ketamine and 1 mg/mL xylazine in 0.9% saline. Once anesthetized, each mouse was cannulated. Each anesthetized mouse was placed in a Stoelting Stereotaxic Frame with a mouse adapter (Stoelting Instruments). An incision was made using a scalpel, and the skin and tissue were pulled back with swabs to reveal the skull. The cannulation site was positioned for optimum access to the ventricle, at coordinates AP −0.2 mm, Horiz −1 mm from bregma. A cannula entry port and two bone screw ports were opened in the skull using a Dremel Flex Shaft Drill (Stoelting Instruments) with a 2.1 mm burr. The cannula was lowered into place and affixed using Loctite 454 (Loctite Corp., Avon, Ohio). An Alzet Mini-Osmotic Pump was inserted into a pouch beneath the skin and attached to the cannula with silastic tubing. The wound was closed using wound clips and the animal was allowed to recuperate.
Delivery of PNA oligomer solutions: All handling of tubing and cannulas was done under sterile conditions. PNA solutions at the correct concentrations were diluted in artificial cerebrospinal fluid (ACSF; 147 mM NaCl, 4.02 mM KCl, 1.2 mM CaCl2, pH 7.5) and then filtered for delivery. As a control, ACSF containing no PNA was delivered.
Experiments were conducted to determine whether PNA-mediated inhibition of mutant huntingtin expression increased survival and/or reversed features of pathophysiology. R6/2 and non-transgenic mice were divided into two groups of three to five mice each, and treated with either HDs or ACSF for approximately ten weeks, beginning at five to six weeks of age. Treated animals received a dose of 0.15 mg/kg of the HDs PNA oligomer, administered by continuous infusion through an Alzet pump. All ACSF-treated transgenic mice died by three months of age.
In other experiments, R6/2 mice were divided into five groups (designated groups 1-5) containing eight to ten animals each. Groups 1-4 received either saline (group 1) or a specific amount of HDs (groups 2-4). Group 5 included untreated R6/2 mice. A sixth group included untreated non-transgenic B6CBA control mice. At 8 weeks of age, each mouse was weighed to establish a weight stability baseline. Baselines for clasping behavior, motility, and motor skill were established at 9 weeks of age using the methods described in Example 1.
At 9 weeks of age, the mice in each group received saline (group 1) or HDs at 2.0 mg/kg, 5.0 mg/kg, or 20.0 mg/kg (groups 2, 3, and 4, respectively) by i.p. injection every 48 hours. The injections continued through 13 weeks of age (i.e., treatment for […]). Weight stability, clasping behavior, motility, and motor skill were assessed weekly during the treatment period. At the time of death or after the treatment period, the brain of each mouse was removed using standard methods. The brains were divided into hemispheres, and one hemisphere of each brain was saved for protein and mRNA analysis. The remaining hemispheres were fixed directly in 10% formalin for 5-7 days. After fixing, the brain hemispheres were weighed individually and processed for sectioning and pathophysiology.

HDs: sense PNA oligomer, 14 residues, 5′-GGACTGCCGTGCCG-3′ (SEQ ID NO:3), specific for the expanded human HD allele (all peptide nucleic acid (PNA))
survival of longest-surviving treated animal (one of three) (0.15 mg/kg continuous infusion by Alzet pump): still alive and healthy at six months of age | survival (0.15 mg/kg continuous infusion by Alzet pump, about ten weeks from five to six weeks of age, ACSF-treated all died by three months): improved survival | mice alive at 13 weeks of age (2.0 mg/kg i.p. every 48 hours from 9 weeks of age): None | mice alive at 13 weeks of age (5.0 mg/kg i.p. every 48 hours from 9 weeks of age): 50% | mice alive at 13 weeks of age (20.0 mg/kg i.p. every 48 hours from 9 weeks of age): 20%
